The text below walks through data of patent US5489604A, “2-saccharinylmethyl aryl and aryloxy acetates useful as proteolytic enzyme inhibitors and compositions and method of use thereof” (Sterling Winthrop, Inc., priority 1994, dated 1996).

The target in the assay is T1, human leukocyte elastase (HLE) (Homo sapiens, UniProt P08246).
T1 sequence (P08246 30-267): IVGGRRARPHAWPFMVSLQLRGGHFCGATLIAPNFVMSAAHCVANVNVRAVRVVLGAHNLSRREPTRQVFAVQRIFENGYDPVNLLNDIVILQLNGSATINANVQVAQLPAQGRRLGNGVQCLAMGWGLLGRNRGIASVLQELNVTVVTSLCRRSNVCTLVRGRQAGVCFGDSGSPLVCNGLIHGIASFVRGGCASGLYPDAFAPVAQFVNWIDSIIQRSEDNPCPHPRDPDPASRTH
Description: inhibition of human leukocyte elastase (HLE): rate of inactivation kon and inhibition constant Ki* (koff/kon). The format is biochemical. As to conditions: for pKi: not truly reversible, ratio of rate of reactivation to rate of inactivation of the enzyme, read-out: K*i (inhibition constant Ki * = koff /kon); for kon: rate of inactivation kon of enzymatic activity, values are Kon × 10^-3. As for the experimental part: Thus, instead of measuring a Ki, a Ki * is calculated which is defined as the ratio of the koff /kon, the rate of reactivation of the enzyme to the rate of inactivation of the enzyme. The values of koff and kon are measured and Ki * is then calculated.
The rate of inactivation, kon, of enzymatic activity was determined for the compounds tested by measuring the enzyme activity of an aliquot of the respective enzyme as a function of time after addition of the test compound. […] The rate of inactivation is then equal to [formula] where [I] is the concentration of the inhibiting compound.
The reactivation constant, koff, is similarly determined, and the inhibition constant, Ki *, is then calculated as […]

SMILES strings stand for the structures. pKi: −log10 of the molar value.

Broadly, the kon is the second-order rate constant of association. Read a low kon as slow association. On to `CC(C)(Oc1ccccc1Cl)C(=O)OCN1C(=O)c2ccccc2S1(=O)=O` [Example 1C], for which the pKi is 7.84 and the kon came to 4100 M⁻¹ s⁻¹.

Consider `CC(C)(Oc1ccc(Cl)cc1)C(=O)OCN1C(=O)c2ccccc2S1(=O)=O` [Example 1B], for which the pKi was 7.84 and the kon is 4000 M⁻¹ s⁻¹.

For the compound `COc1cc(C(C)C)c2c(c1)S(=O)(=O)N(COC(=O)[C@H](OC)c1ccccc1)C2=O` [Example 1I], the pKi was 10.10 and the kon was 118000 M⁻¹ s⁻¹.

As for `CC(C)c1cccc2c1C(=O)N(COC(=O)C(C)(C)Oc1ccc(Cl)cc1)S2(=O)=O` [Example 1E], the pKi was 9.22 and the kon was 38000 M⁻¹ s⁻¹.

Turning to `COC(C(=O)OCN1C(=O)c2c(C(C)C)cccc2S1(=O)=O)c1ccccc1` (stereo not shown) [Example 1H], the pKi was 9.52 and the kon was found to be 80000 M⁻¹ s⁻¹.

With `CC(C)(C(=O)OCN1C(=O)c2ccccc2S1(=O)=O)c1ccccc1` [Example 1A], the pKi was 7.74 and the kon came out at 3500 M⁻¹ s⁻¹.

Regarding `CC(C)c1cccc2c1C(=O)N(COC(=O)C(C)(C)Oc1ccccc1Cl)S2(=O)=O` [Example 1F], the pKi is 9.10 and the kon was 29000 M⁻¹ s⁻¹.

As to `CC(C)c1cccc2c1C(=O)N(COC(=O)C(O)c1ccccc1)S2(=O)=O` (stereo not shown) [Example 1G], the pKi is 9.59 and the kon was 88500 M⁻¹ s⁻¹.

As for `COc1cc(C(C)C)c2c(c1)S(=O)(=O)N(COC(=O)[C@@H](OC)c1ccccc1)C2=O` [Example 1K], the pKi was 10.05 and the kon is 102000 M⁻¹ s⁻¹.

In the case of `CC(C)c1cccc2c1C(=O)N(COC(=O)C(C)(C)c1ccccc1)S2(=O)=O` [Example 1D], the pKi is 9.00 and the kon was 23000 M⁻¹ s⁻¹.

For the compound `COc1cc(C(C)C)c2c(c1)S(=O)(=O)N(COC(=O)C(C)(O)c1ccccc1)C2=O` (stereo not shown) [Example 1J], the pKi is 9.92 and the kon is 77700 M⁻¹ s⁻¹.
